PMC8245773, “Brevibacillin 2V, a Novel Antimicrobial Lipopeptide With an Exceptionally Low Hemolytic Activity” (Frontiers in Microbiology, 2021)
*1 amine or outer side, *2 acyl side, *3 side chain or, on linkers, in order; H or OH if unused. Where a SMILES comes first, the peptide text is derived from it. [ ]: non-standard residue; d: D form. The star is where a group is joined. X2 = CC=C(N[*:1])C(=O)[*:2]; dOrn = NCCC[C@@H](N)C(=O)O; Valol = CC(C)[C@@H](CO)N*; X1 = CCC(C)C(O)C(=O)*

How the values were obtained:
K. pneumoniae LMG20218 = assay: Synergy assay, checkerboard method; conditions: checkerboard, 5 × 10^5 cfu/ml, 37°C, 20 h, antibiotic alone
Experimental: (§2) Briefly, antibiotics were diluted in twofold series, while brevibacillins were added at a certain final concentration of 1, 2, or 4 mg/L. Indicator strains were added at a final concentration of 5 × 10^5 cfu/ml. After incubation at 37°C for 20 h, the OD600 of plates was determined. The fractional inhibitory concentration index (FICI) was calculated using the following formula: FICI = (MIC compound A in combination with B / MIC compound A) + (MIC compound B in combination with A / MIC compound B).

P. aeruginosa LMG6395 = assay: Synergy assay, checkerboard method; conditions: for FICI: synergistic ≤0.5;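 as to all read-outs here: antibiotics tested in twofold serial dilutions, with inhibition judged from plate OD600 readings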
Experimental: as §2

A. baumannii ATCC17978 = assay: Synergy assay, checkerboard method; conditions: A. baumannii ATCC17978; for FICI: synergistic ≤0.5
Experimental: as §2

E. coli ATCC 25922 = assay: Synergy assay, checkerboard method; conditions: for FICI: synergistic ≤0.5;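 as to all read-outs here: growth read as OD600 in microplates, with antibiotics tested across twofold serial dilutions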
Experimental: as §2

human erythrocytes = assay: Hemolytic activity
Experimental: This assay was performed as per the method described in previous studies ([Ling et al., 2015]; [Li et al., 2018]). Briefly, erythrocytes were isolated from a healthy human volunteer donor (ordered from Sanquin, Netherlands^1) and washed with phosphate-buffered saline (PBS) three times. After that, peptides were added at final concentrations of 128, 64, 32, 16, 8, 4, 2, 1, and 0 mg/L in PBS containing 2% (v/v) erythrocytes. The cells were incubated at 37°C for 1 h and centrifuged for 5 min at 8,000 g. The supernatant was transferred to a 96-well plate, and the absorbance was measured at a wavelength of 450 nm with a Thermo Scientific Varioskan^TM LUX multimode microplate reader. The absorbance relative to the positive control, which was treated with 10% Triton X-100, was defined as the percentage of hemolysis. The 50% human blood cell hemolysis concentration (HC50) of peptides was calculated as described in previous studies ([Reed and Muench, 1938]).
(§1) GraphPad Prism 7.0 was used to fit the data of hemolytic assay and cytotoxicity assay in Figure 3. The experiments were conducted in triplicate, and data are presented as the mean value of triplicate experiments. Data Explorer Software was used to analyze the MALDI-TOF data; Thermo Scientific Xcalibur software was used to analyze the LC–MS/MS data. The statistical significance of the data was assessed using Duncan’s multiple-range test with the software SPSS Statistics 19.0. P-values less than 0.05 were considered to be statistically significant.

HepG2 cells = conditions: for HepG2 CC50: 24 h
Experimental: The cytotoxicity of brevibacillins was evaluated on HepG2 cells by using the XTT (Cell Proliferation Kit XTT, AppliChem) assay ([Roehm et al., 1991]). HepG2 cells [in Dulbecco’s modified Eagle’s medium (DMEM) supplemented with 10% fetal bovine serum] were seeded into 96-well plates and incubated at 37°C with 5% CO2. After 24 h, the medium was replaced with a fresh medium (DMEM with 2% FBS, 100 μl per well) containing different concentrations of brevibacillins ([Zhao et al., 2017]). After 24 h of incubation, the XTT reagent was added to the cultures according to the manufacturer’s instructions, and the plates were incubated at 37°C for 2 h with 5% CO2. Subsequently, the absorbance values were measured by using a Varioskan^TM LUX multimode microplate reader (Thermo Fisher Scientific) at 485 nm (reference, 690 nm). The 50% cell toxicity (CC50) of peptides was calculated as described in a previous study ([Reed and Muench, 1938]).
as §1

[1] = checkerboard, 5 × 10^5 cfu/ml, 37°C, 20 h, antibiotic alone
[2] = checkerboard, 5 × 10^5 cfu/ml, 37°C, 20 h, E.coli ATCC 25922, antibiotic alone

## CO[C@H]1/C=C/O[C@@]2(C)Oc3c(C)c(O)c4c(O)c(c(/C=N/N5CCN(C)CC5)c(O)c4c3C2=O)NC(=O)/C(C)=C\C=C\[C@H](C)[C@H](O)[C@@H](C)[C@@H](O)[C@@H](C)[C@H](OC(C)=O)[C@@H]1C [Rifampicin]
K. pneumoniae LMG20218
  MIC of antibiotic at brevibacillin 0 mg/L: 64 µg/mL
  MIC of antibiotic at brevibacillin 2V 0 mg/L: 64 µg/mL
  MIC of antibiotic at brevibacillin I 0 mg/L: 64 µg/mL
  MIC of antibiotic at brevibacillin V 0 mg/L: 64 µg/mL
P. aeruginosa LMG6395; antibiotic + brevibacillin 2V
  FICI: 0.516
P. aeruginosa LMG6395; antibiotic + brevibacillin I
  FICI: 0.516
P. aeruginosa LMG6395; antibiotic + brevibacillin V
  FICI: 0.516
P. aeruginosa LMG6395; antibiotic + brevibacillin
  FICI: 0.281
P. aeruginosa LMG6395; [1]
  MIC of antibiotic at brevibacillin 0 mg/L: 32 µg/mL
  MIC of antibiotic at brevibacillin 2V 0 mg/L: 32 µg/mL
  MIC of antibiotic at brevibacillin I 0 mg/L: 32 µg/mL
  MIC of antibiotic at brevibacillin V 0 mg/L: 32 µg/mL
A. baumannii ATCC17978; antibiotic + brevibacillin 2V
  FICI: 0.375
A. baumannii ATCC17978; antibiotic + brevibacillin I
  FICI: 0.516
A. baumannii ATCC17978; antibiotic + brevibacillin V
  FICI: 0.516
A. baumannii ATCC17978; antibiotic + brevibacillin
  FICI: 0.281
A. baumannii ATCC17978; [1]
  MIC of antibiotic at brevibacillin 0 mg/L: 32 µg/mL
  MIC of antibiotic at brevibacillin 2V 0 mg/L: 32 µg/mL
  MIC of antibiotic at brevibacillin I 0 mg/L: 32 µg/mL
  MIC of antibiotic at brevibacillin V 0 mg/L: 32 µg/mL
E. coli ATCC 25922; antibiotic + brevibacillin 2V, E. coli ATCC 25922
  FICI: 0.313
E. coli ATCC 25922; antibiotic + brevibacillin I, E.coli ATCC 25922
  FICI: 0.531
E. coli ATCC 25922; antibiotic + brevibacillin V, E.coli ATCC 25922
  FICI: 0.375
E. coli ATCC 25922; antibiotic + brevibacillin, E.coli ATCC 25922
  FICI: 0.250
E. coli ATCC 25922; [2]
  MIC of antibiotic at brevibacillin 0 mg/L: 4 µg/mL
  MIC of antibiotic at brevibacillin 2V 0 mg/L: 4 µg/mL
  MIC of antibiotic at brevibacillin I 0 mg/L: 4 µg/mL
  MIC of antibiotic at brevibacillin V 0 mg/L: 4 µg/mL

## CC=C(NC(=O)C(O)C(C)CC)C(=O)N[C@@H](CC(C)C)C(=O)N[C@H](CCCN)C(=O)N[C@H](C(=O)N[C@H](C(=O)N[C@H](C(=O)N[C@H](CCCCN)C(=O)N[C@H](C(=O)N[C@H](C(=O)N[C@@H](CCCCN)C(=O)N[C@H](Cc1ccc(O)cc1)C(=O)N[C@@H](CC(C)C)C(=O)N[C@H](CO)C(C)C)C(C)C)C(C)C)C(C)C)C(C)C)C(C)C (stereo partly drawn) [brevibacillin 2V] (X1-[X2]L[dOrn]VVV[dK]VVK[dY]L-Valol)
Human erythrocytes; 128 mg/L, human erythrocytes, 37°C, 1 h
  hemolytic activity at 128 mg/L: No hemolytic activity
Human erythrocytes; red cells of human, 1 h
  HC50 (concentration that causes 50% hemolysis of human red blood cells): > 128 mg/L
HepG2 cells
  CC50 (HepG2) relative to MIC values against bacterial pathogens: 23 fold
  cytotoxicity to HepG2 cells at 32 mg/L: no cytotoxicity
  HepG2 CC50: 45.49 ± 0.24 µg/mL

## CC=C(NC(=O)C(O)C(C)CC)C(=O)N[C@@H](CC(C)C)C(=O)N[C@H](CCCN)C(=O)N[C@H](C(=O)N[C@H](C(=O)N[C@H](C(=O)N[C@H](CCCCN)C(=O)N[C@H](C(=O)N[C@H](C(=O)N[C@@H](CCCCN)C(=O)N[C@H](Cc1ccc(O)cc1)C(=O)N[C@@H](CC(C)C)C(=O)N[C@H](CO)C(C)C)C(C)C)[C@@H](C)CC)C(C)C)[C@@H](C)CC)[C@@H](C)CC (stereo partly drawn) [brevibacillin I] (X1-[X2]L[dOrn]IIV[dK]IVK[dY]L-Valol)
Human erythrocytes
  hemolytic activity at 64 mg/L: completely lysed
HepG2 cells
  CC50 (HepG2) relative to MIC values against bacterial pathogens: 2.5- to fivefold
  cytotoxicity to HepG2 cells at 16 mg/L: all of the HepG2 cells were killed
  HepG2 CC50: 7.38 ± 0.30 µg/mL
